Measured values reported in patent US8299097B2, “Methods for treating inflammatory disorders” (The Brigham and Women's Hospital, Inc., priority 2008, dated 2012).

Tests used:
[1] = system: CHO cells expressing CysLT1R, CysLT2R, or P2Y12 receptors; assay: Calcium flux in Fura-2-AM-loaded CHO transfectants; assay type: cell-based, human; settings: LTE4 500 nM, ADP 100 μM; ADP response reflects endogenous P2Y receptors
[2] = Direct binding of [H^3]LTE4 to LAD2 cell membranes; design: species or system human
Method: FIG. 10. Competitive ligand binding assays. 10A. […] Specific binding (typically 50-75% of the total) was calculated by subtracting the amount of radiolabel that was insensitive to the selective P2Y12 receptor antagonist 2-MesAMP. Nonspecific binding was essentially identical in the membranes with and without P2Y12 receptor knockdown. The dose response for the LAD2 membranes are from a single experiment repeated four times with similar results. The binding on the LAD2 cells with P2Y12 knocked down was repeated twice. 10B. Specific binding of radiolabeled ADP (2000 nM) to membranes of LAD2 cells. […] Results are mean±SD from three separate experiments. 10C. Conversion of radiolabeled LTD4 to LTE4 as confirmed by HPLC (left). […] Results in a second experiment were similar 10D. Competitive binding of radiolabeled 2-MesADP to COS-7 cells transfected with the human P2Y12 construct.
Competitive radioligand binding assays were performed using [H^3]ADP (the known natural ligand of P2Y12 receptors) and unlabeled LTs as competitors. […]
[^3H] […] Protein concentration was determined using Biorad Protein Assay Kit. […] The residual membrane-associated [^3H] on the filter was determined in 2 ml scintillation fluid by beta counter (Perkin Elmer). For [^3H]ADP, specific binding was determined by subtracting the amount of [^3H] bound in the presence of 100 μM 2-MesADP from total binding.

human CysLT1R = molecular target: T1, human CysLT1R (Homo sapiens, UniProt Q9Y271); assay: ERK activation in CysLT1R CHO transfectants; assay type: cell-based
T1 construct: expressed in transfected cells
T1 sequence (Q9Y271 1-337): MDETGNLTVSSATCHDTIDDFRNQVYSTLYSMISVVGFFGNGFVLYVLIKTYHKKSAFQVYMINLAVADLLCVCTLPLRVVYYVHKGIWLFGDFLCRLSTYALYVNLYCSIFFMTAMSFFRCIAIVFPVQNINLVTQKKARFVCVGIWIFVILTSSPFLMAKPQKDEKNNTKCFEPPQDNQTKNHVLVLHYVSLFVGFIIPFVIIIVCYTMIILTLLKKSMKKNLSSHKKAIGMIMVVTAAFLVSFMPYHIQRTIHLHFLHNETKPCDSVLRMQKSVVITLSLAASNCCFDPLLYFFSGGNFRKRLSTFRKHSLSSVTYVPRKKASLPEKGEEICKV
Method: FIG. 1. Activation by recombinant human P2Y12 receptors in response to cys-LTs. The human P2Y12 receptor cDNA was cloned in forward and reverse orientation into the expression vector pEF1/His B and transfected into CHO cells using Fugene HD reagent. Stably-expressing clones were selected using G418 (1000 μg/ml), and expression of the construct was confirmed by cytofluorographic detection of the HIS tag. 1A. […] 1B. SDS-PAGE immunoblots showing phosphorylation of ERK2 by CHO cells stably expressing human P2Y12 receptors in reverse (negative control) or forward orientations. […] The blots were stripped and re-probed with an antibody (Ab) recognizing total ERK1 and ERK2. […] 1C. Effect of the selective P2Y12 receptor antagonist 2-MesAMP (MeS) on ligand-induced ERK phosphorylation. P2Y12 receptor expressing CHO cells were stimulated with the same doses of agonists used in 1A, in the absence or presence of 2-MesAMP (100 μM). 1D. Comparison of P2Y12 receptor-mediated responses to cys-LTs with those of recombinant human CysLT1R and CysLT2R expressed in CHO cells, and the effect of the CysLT1R antagonist MK571 (1 μM).
A P2Y12 receptor cDNA was amplified by reverse transcriptase polymerase chain reaction (RT-PCR) from RNA extracted from primary hMCs and cloned into a mammalian expression vector. Expression was confirmed by detection of a histidine (HIS) tag by flow cytometry. […]

SMILES	calcium flux [1]	binding of [H^3]LTE4 to LAD2 cell membranes [2]	effect on cys-LT-induced ERK activation (human CysLT1R)
CCCCC/C=C\C\C=C/C=C/C=C/[C@@H](SC[C@H](N)C(=O)O)[C@@H](O)CCCC(=O)O [LTE4]	failed to flux calcium	weakly bound	
CN(C)C(=O)CCSC(SCCC(=O)O)c1cccc(/C=C/c2ccc3ccc(Cl)cc3n2)c1 (stereo not drawn) [MK571]			susceptible
